Test system: foot complaints (tired, achy, sore)
Assay: Foot bath study of foot pain (100 mm visual analogue scale) versus sucrose sham
Assay type: in vivo, human
Source text: Subjects: Normal healthy adults aged 40-75 with daily reported foot complaints (tired, achy, sore) that are not currently taking prescription or over the counter products for symptom relief. An attempt is made to recruit equal numbers of male and female participants. Sample Size: 40 subjects; 20 per group Treatment groups: Soothing foot bath topical fluid application apparatus (Glucosamine KCl), group A; Sham: Sucrose foot bath topical fluid application apparatus, group B. Methods: Recruitment—Questionnaire evaluating health status and foot complaints; including visual analogue scale evaluation of current pain state. Baseline—Questionnaire evaluating health status and foot complaints; including visual analogue scale evaluation of current pain state. Treatment—Subjects are randomly assigned to one of two treatment groups and asked to submerge their right foot in a plastic box that contains 3 liters of room temperature tap water and 2 liters of boiling water plus one packet (50 grams) of the labeled “treatment pack” and stirred until in solution. Label is removed from pack and placed on chart. Foot remains submerged and stopwatch set for 1 hour. At the end of 1 hour, subject foot is dried and subject is asked to mark on the line (100 mm) the current state of their foot pain upon standing. […]

N[C@H]1C(O)OC(CO)[C@@H](O)[C@@H]1O (stereo partly drawn) [glucosamine, (3R,4R,5S)-3-Amino-6-(hydroxymethyl)oxane-2,4,5-triol]
pain relief compared with sucrose sham, duration (72 hours after treatment, single 1 hour foot bath, 50 grams in 5 liters water, many subjects): greater pain relief
pain relief compared with sucrose sham (group B) (healthy adults aged 40-75 with daily foot complaints, right foot submerged 1 hour in 5 liters water with 50 grams treatment pack, visual analogue scale): sufficiently better pain relief

Reference: patent US20170354670A1, “PRODUCT COMPRISING GLUCOSAMINE FOR EXTERNAL APPLICATION” (Vital Medicine, LLC, priority 2016, published 2017)
